{"source": "patent US5254582A", "about": "“Antitumor compositions and methods” (Eli Lilly and Company, priority 1992, dated 1993)", "key": {"[1]": {"experiment": "toxicological study in male Fischer 344 rats, morphological, hematological and pathological studies", "type": "in vivo, rat (male Fischer 344)", "conditions": "rat, 65 to 1000 mg/kg, oral gavage, daily for 14 days", "experimental": "For these experiments thirty male Fischer 344 rats were administered varying dosages of a formulation containing the compound of Formula I. These formulations contained between 65 and 1000 mg of the active ingredient per kilogram of body weight of the rat, in combination with a suitable excipient, usually containing 10% acacia. The compounds were administered orally by gavage. The compounds were dosed daily for 14 days. All animals were weighed at the beginning and end of administration of the subject compounds. Food and water were provided ad libitum.\nUpon completion of the testing regimen, morphological and hematological studies were performed."}, "[2]": {"test_system": "VRC5 human colon adenocarcinoma xenograft", "experiment": "percent inhibition of tumor growth and mortality in mice bearing VRC5 human colon adenocarcinoma xenografts, oral", "type": "in vivo", "conditions": "daily for 10 days", "from_the_text": "(§1) Two of the tumor models used for showing the antineoplastic activity of the sulfonylurea of this invention were the human colon xenografts, HXGC3 and VRC5. J. A. Houghton and D. M. Taylor, British Journal of Cancer, 37:213-223 (1978). These tumors were obtained from St. Jude's Children's Research Hospital and have been widely used as human tumor models.\n(§2) First passage tumors were stored in liquid nitrogen, using standard techniques. The transplanted tumor was reestablished from the Tumor Bank every six months or as needed. The tumor was maintained by serial passage twice weekly in nude mice.\n(§3) In the procedures utilized here, the tumor was removed from passage animals and minced into 1- to 3-mm cubic fragments using sterile techniques. Tumor pieces were checked for sterility using both Antibiotic medium 1 and Brain Heart Infusion (Difco, Detroit, Mi.). The tumor pieces were implanted into the recipient CDl Nu/Nu mice subcutaneously in an axillary site by trochar.\n(§4) Drug therapy on the appropriate schedule was initiated seven days after tumor implantation. The compound being tested was mixed with 2.5% Emulphor EL620 from GAF Corporation (1:40 dilution in 0.9% saline). The total dosage volume for each administration was 0.5 mL. All animals were weighed at the beginning and end of administration of the subject compounds. Food and water were provided ad libitum.\n(§5) Each control group and each dosage level of the treated groups consisted of 10 mice selected at random from the pool of implanted animals. The formulations were administered orally by gavage with the use of an 18-gauge needle. Compounds were dosed daily for 10 days.\n(§6) The tumor was measured five days after treatment ended with two dimensional measurements (width and length) of the tumor taken using digital electronic calipers interfaced to a microcomputer. J. F. Worzalla, et al., Investigational New Drugs, 8:241-251 (1990). Tumor weights were calculated from these measurements using the following formula:\n(§7) Tumor weight (mg)=[tumor length (mm)×[tumor width (mm)]^2 ]\n(§8) At least one control group of an equal number of mice was treated with the same volume of 2.5% Emulphor only. The percent inhibition is determined by subtracting the ratio of the mean tumor size of the test group relative to the control group from one and multiplying the result by 100.\n(§9) The results of several experiments in mice bearing the HXGC3 and VRC5 human colon adenocarcinomas when the instant compounds were administered orally are provided in Table I. In the Table, column 1 describes the particular human tumor xenograft being studied; column 2 gives the dosage level of the compound of Formula I in milligrams per kilogram of body weight; column 3 describes the percent inhibition of tumor growth; and column 4 tallies the number of mice which died during the course of the experiment relative to the total number of animals in the group."}, "[3]": {"test_system": "transplanted human tumors", "experiment": "activity against transplanted human tumors in mice bearing different xenograft tumors", "type": "in vivo", "from_the_text": "as §1"}, "[4]": {"test_system": "HXGC3 human colon adenocarcinoma xenograft", "experiment": "percent inhibition of tumor growth and mortality in mice bearing HXGC3 human colon adenocarcinoma xenografts, oral", "type": "in vivo", "conditions": "daily for 10 days", "from_the_text": "as §1, §2, §3, §4, §5, §6, §7, §8, §9"}, "[5]": {"conditions": "phase I clinical studies; cited from earlier work"}, "[6]": {"conditions": "cited from earlier work"}, "[7]": {"conditions": "in vivo; cited from earlier work"}}, "data": [{"smiles": "O=C(Nc1ccc(Cl)c(Cl)c1)NS(=O)(=O)c1ccc2c(c1)CCO2", "note": "[compound of Formula I, N-[[(3,4-dichlorophenyl)amino]carbonyl]-2,3-dihydrobenzofuran-5-sulfonamide]", "values": [{"measurement": "hemolytic anemia", "setting": "[1]", "result": "absence of hemolytic anemia"}, {"measurement": "pathological tissue effects", "setting": "[1]", "result": "effectiveness against tissues with a high mitotic index, including lymph nodes, thymus, gut, testis, and bone marrow"}, {"measurement": "unexpected tissue changes", "setting": "[1]", "result": "Unexpected tissue changes were not observed"}, {"measurement": "Percent Inhibition of tumor growth", "setting": "[2]; 150 mg/kg", "result": 97, "unit": "%"}, {"measurement": "Toxic/Total (mice which died relative to total number in group)", "setting": "[2]; 150 mg/kg", "result": "0/10"}, {"measurement": "Percent Inhibition of tumor growth", "setting": "[2]; 300 mg/kg", "result": 98, "unit": "%"}, {"measurement": "Toxic/Total (mice which died relative to total number in group)", "setting": "[2]; 300 mg/kg", "result": "0/10"}, {"measurement": "Percent Inhibition of tumor growth", "setting": "[2]; 600 mg/kg", "result": 100, "unit": "%"}, {"measurement": "Toxic/Total (mice which died relative to total number in group)", "setting": "[2]; 600 mg/kg", "result": "0/10"}, {"measurement": "Percent Inhibition of tumor growth", "setting": "[2]; 1200 mg/kg", "result": 100, "unit": "%"}, {"measurement": "Toxic/Total (mice which died relative to total number in group)", "setting": "[2]; 1200 mg/kg", "result": "0/10"}, {"measurement": "therapeutic index", "setting": "[3]; in vivo", "result": "high therapeutic index"}, {"measurement": "activity against transplanted human tumors in vivo", "setting": "[3]; mice bearing different xenograft tumors", "result": "active against transplanted human tumors in vivo"}, {"measurement": "Percent Inhibition of tumor growth", "setting": "[4]; 150 mg/kg", "result": 81, "unit": "%"}, {"measurement": "Toxic/Total (mice which died relative to total number in group)", "setting": "[4]; 150 mg/kg", "result": "0/10"}, {"measurement": "Percent Inhibition of tumor growth", "setting": "[4]; 300 mg/kg", "result": 98, "unit": "%"}, {"measurement": "Toxic/Total (mice which died relative to total number in group)", "setting": "[4]; 300 mg/kg", "result": "0/10"}, {"measurement": "Percent Inhibition of tumor growth", "setting": "[4]; 600 mg/kg", "result": 98, "unit": "%"}, {"measurement": "Toxic/Total (mice which died relative to total number in group)", "setting": "[4]; 600 mg/kg", "result": "0/10"}, {"measurement": "Percent Inhibition of tumor growth", "setting": "[4]; 1200 mg/kg", "result": 99, "unit": "%"}, {"measurement": "Toxic/Total (mice which died relative to total number in group)", "setting": "[4]; 1200 mg/kg", "result": "0/10"}]}, {"smiles": "O=C(Nc1ccc(Cl)cc1)NS(=O)(=O)c1ccc2c(c1)CCC2", "note": "[sulofenur, N-(indan-5-sulfonyl)-N'-(4-chlorophenyl)urea]", "values": [{"measurement": "major metabolites in patients", "setting": "[5]", "result": "1-hydroxy- and 1-ketoindansulfonylureas"}, {"measurement": "main urinary metabolites", "setting": "[6]; animal trials, urine", "result": "mono-hydroxy- and mono-ketoindanyl metabolites"}, {"measurement": "adsorption and metabolism", "setting": "[6]; mice, rats, dogs, and monkeys", "result": "good adsorption and extensive metabolism"}, {"measurement": "dose-limiting toxicity", "setting": "[7]", "result": "hemolytic anemia"}]}]}
